Legend:
Assay type in all cases: cell-based
Conditions in all cases: final concentration 1 μmol/l
[1] = system: blood vessel of an apoaequorin transgenic mouse; assay: Intracellular calcium (aequorin luminescence) in blood vessel pieces of apoaequorin transgenic mouse
Protocol: (§1) In order to evaluate physiological activities of the peptides prepared in Example 1, the prepared peptides were allowed to act upon organs excised from the living body, and changes in the concentration of an intracellular signal transduction substance in cells constituting the organs were measured.
(§2) In order to measure changes in the concentration of an intracellular signal transduction substance in cells constituting the organs, a transgenic mouse prepared by integrated an apoaequorin gene expression vector into a chromosome was used. Specifically, a female mouse derived from the transgenic mouse disclosed in Reference Example 4 as an individual number 98075-04-6 was used in the test. The transgenic mouse was prepared and reared as an SPF animal in a clean room, and was not contaminated with pathogens including mouse hepatitis virus, Sendai virus, mycoplasma and Tyzzer bacterium.
Aequorin is a bioluminescent protein complex which is present in the umbrella region of luminescent Aequorea victoria. Aequorin is constituted from its protein moiety apoaequorin, its luminescence substrate coelent razin and molecular oxygen, and emits light by its binding with calcium ion. Since expression of the apoaequorin protein has been confirmed in at least thymus, spleen, abdominal muscle, diaphragm, kidney, crystalline lens, pancreas, fat tissue, liver, skull, blood vessel, ovary, womb and adrenal gland of the transgenic mouse used in the test, it was able to monitor changes in the intracellular calcium ion concentration in these organs with a high sensitivity.
Organs were prepared from offsprings borne from the female of individual number 98075-04-6 to examine the activities of the peptides produced in Example 1. After the offsprings were killed, the thymus, spleen, abdominal muscle, diaphragm, kidney, crystalline lens, pancreas, fat tissue, liver, skull, blood vessel, ovary, womb and adrenal gland were excised. Each of the excised organs was cut into small cubes of about 1 to 2 mm square in PBS containing 10 units/ml of heparin sodium and thoroughly washed by changing the solution. Next, three pieces of each of the organ samples thus prepared were put into a 5 ml capacity tube (Rohren-Tubes; No. 55.476, manufactured by Sarstedt) which had been charged with RPMI 1640 medium containing 200 μl of 10 μmol/l coelenterazine (manufactured by Molecular Probes), and cultured at 37° C. for 5 hours. Five hours after, various substances shown below dissolved in RPMI 1640 medium were added at 200 μl, and the luminescence was measured just after the addition at 1 second intervals using a luminometer AutoLumat LB953 (manufactured by BERTHOLD).

[2] = system: womb of an apoaequorin transgenic mouse; assay: Intracellular calcium (aequorin luminescence) in womb pieces of apoaequorin transgenic mouse
Protocol: as §1
as §2, with “The transgenic mouse was prepared and reared as an SPF animal in a clean room, and was not contaminated with pathogens including mouse hepatitis virus, Sendai virus, mycoplasma and Tyzzer bacterium.” left out
(§3) Aequorin is a bioluminescent protein complex which is present in the umbrella region of luminescent Aequorea victoria. Aequorin is constituted from its protein moiety apoaequorin, its luminescence substrate coelent razin and molecular oxygen, and emits light by its binding with calcium ion. […]
(§4) Organs were prepared from offsprings borne from the female of individual number 98075-04-6 to examine the activities of the peptides produced in Example 1. […] Five hours after, various substances shown below dissolved in RPMI 1640 medium were added at 200 μl, and the luminescence was measured just after the addition at 1 second intervals using a luminometer AutoLumat LB953 (manufactured by BERTHOLD).

[3] = system: adrenal gland of an apoaequorin transgenic mouse; assay: Intracellular calcium (aequorin luminescence) in adrenal gland pieces of apoaequorin transgenic mouse
Protocol: as §1
as §2, with “The transgenic mouse was prepared and reared as an SPF animal in a clean room, and was not contaminated with pathogens including mouse hepatitis virus, Sendai virus, mycoplasma and Tyzzer bacterium.” left out
as §3, §4

Measured: luminescence (intracellular calcium increase)

angiotensin II [purchased from Research Biochemicals International (product code: A-151)]
Strong luminescence: all assays above
